Reference: patent publication US10975084B2, “KDM5 inhibitors” (Merck Sharp & Dohme Corp., priority 2016, dated 2021)

Molecular target: KDM5B (Homo sapiens (Human), UniProt Q9UGL1)
Assay: KDM5B TR-FRET Enzyme Activity Assay
Assay type: biochemical
Conditions: LANCE TR-FRET; 5 nM full-length recombinant KDM5B; ten point titration 100000 nM to 5.08 nM
Protocol: KDM5B TR-FRET Enzyme Activity Assay
KDM5B enzymatic activity was determined with the LANCE (Lanthanide Chelate Excite) TR-FRET (Time-resolved fluorescence resonance energy transfer) assay. […] To each well of a white Greiner 1536 Lumitrac 1536 well-plate, 50 nL of compound (100 fold dilution in final assay volume of 5 μL) was dispensed, followed by the addition of 4 μL of 1× assay buffer (50 mM Hepes 7.3, 0.5 mM TCEP, 0.005% Brij-35, 0.02% BSA, 50 μM Na-L-Ascorbate and 2 μM AmFe(II)Sulfate) containing 5 nM of Full-length KDM5B enzyme (recombinant protein from baculovirus-transfected Sf21 cells: full-length KDM5B; MW=176.825 kDa). Following a 30 minutes compound and enzyme incubation in a humidified chamber, each reaction was initiated by the addition of 1 μL 1× assay buffer containing […] biotinylated H3K4Me3 peptide, and 500 nM α-ketoglutarate. The final reaction in each well of 5 μL consists of 5 nM KDM5B, 500 nM biotinylated-peptide, and 500 nM α-ketoglutarate. De-methylation reactions were allowed to proceed for 60 minutes. Reactions were immediately quenched by the addition of 5 uL of 2× Lance Detection Buffer (PerkinElmer) with 0.5 mM EDTA and 2 nM of Eu-anti-H3K4Me1-2 antibody, and 30 nM of Streptavidin-conjugated Dylight 650 detection reagents. After 60 minutes incubation with detection reagents, reaction plates were read on a PerkinElmer EnVision plate reader using standard TR-FRET protocol. Briefly, excitation of donor molecules (Eu-chelate-anti-H3K4Me1-2-antibody) with a laser light source at 337 nm produces energy that can be transferred to Dylight-650 acceptor molecules if this donor:acceptor pair is within close proximity. Fluorescence intensity at both 665 nm (acceptor) and 615 nm (donor) are measured and a TR-FRET ratio calculated for each well (acceptor intensity/donor intensity). IC50 values were determined by 4 parameter robust fit of TR-FRET ratio values vs. (Log 10) compound concentrations.

Chain of KDM5B (Q9UGL1 whole entry): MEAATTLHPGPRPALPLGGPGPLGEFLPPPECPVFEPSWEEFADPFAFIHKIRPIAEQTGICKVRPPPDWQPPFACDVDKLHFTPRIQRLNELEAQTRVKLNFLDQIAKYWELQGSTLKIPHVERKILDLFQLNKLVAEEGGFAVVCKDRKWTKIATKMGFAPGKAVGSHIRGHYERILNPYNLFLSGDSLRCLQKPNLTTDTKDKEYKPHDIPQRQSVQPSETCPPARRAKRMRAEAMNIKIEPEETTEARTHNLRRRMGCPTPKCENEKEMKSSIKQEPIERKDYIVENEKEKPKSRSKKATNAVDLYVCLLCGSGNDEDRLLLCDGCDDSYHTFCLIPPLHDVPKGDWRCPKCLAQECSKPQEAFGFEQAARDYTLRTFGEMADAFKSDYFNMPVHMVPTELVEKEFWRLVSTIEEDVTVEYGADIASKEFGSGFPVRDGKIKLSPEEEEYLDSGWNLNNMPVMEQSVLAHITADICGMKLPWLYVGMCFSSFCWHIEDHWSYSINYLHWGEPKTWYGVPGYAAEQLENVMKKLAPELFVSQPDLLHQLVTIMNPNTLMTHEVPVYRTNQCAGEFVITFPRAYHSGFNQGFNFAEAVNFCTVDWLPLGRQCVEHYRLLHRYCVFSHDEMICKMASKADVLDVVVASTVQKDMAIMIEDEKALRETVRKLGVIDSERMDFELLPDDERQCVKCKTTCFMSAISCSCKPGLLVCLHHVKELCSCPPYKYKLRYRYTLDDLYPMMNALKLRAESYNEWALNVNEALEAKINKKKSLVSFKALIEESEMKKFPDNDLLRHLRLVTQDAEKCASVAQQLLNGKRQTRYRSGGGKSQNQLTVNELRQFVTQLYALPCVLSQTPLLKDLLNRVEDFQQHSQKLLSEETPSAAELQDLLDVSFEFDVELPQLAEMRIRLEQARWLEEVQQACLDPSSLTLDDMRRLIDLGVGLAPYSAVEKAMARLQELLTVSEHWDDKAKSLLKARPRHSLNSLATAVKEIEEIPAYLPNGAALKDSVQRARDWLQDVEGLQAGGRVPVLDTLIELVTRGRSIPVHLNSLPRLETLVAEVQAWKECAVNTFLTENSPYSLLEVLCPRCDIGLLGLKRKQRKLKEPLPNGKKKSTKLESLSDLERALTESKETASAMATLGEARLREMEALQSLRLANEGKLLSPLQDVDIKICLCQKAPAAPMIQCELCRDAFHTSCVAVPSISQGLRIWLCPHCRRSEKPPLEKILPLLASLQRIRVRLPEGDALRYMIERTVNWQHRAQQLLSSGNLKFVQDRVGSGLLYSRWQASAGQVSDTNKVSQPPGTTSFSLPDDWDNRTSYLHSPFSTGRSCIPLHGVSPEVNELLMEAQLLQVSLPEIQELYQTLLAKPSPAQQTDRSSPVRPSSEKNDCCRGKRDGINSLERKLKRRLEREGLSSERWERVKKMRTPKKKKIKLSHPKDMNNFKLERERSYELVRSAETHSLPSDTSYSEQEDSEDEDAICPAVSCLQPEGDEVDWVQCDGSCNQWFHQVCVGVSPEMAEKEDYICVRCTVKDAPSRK

First: O=c1cc(C(F)(F)F)[nH]c2ncnn12 [Example 8-3, 5-(trifluoromethyl)[1,2,4]triazolo[1,5-a]pyrimidin-7(4H)-one]
Second: O=c1c(F)c(C(F)(F)F)[nH]c2ncnn12 [Example 8-17, 6-fluoro-5-(trifluoromethyl)[1,2,4]triazolo[1,5-a]pyrimidin-7(4H)-one]
The IC50 of the first is 1.9-fold lower: 13.4 µM for the first, 25.7 µM for the second. The first is the more potent here.

`Cc1cc(=O)n2ncnc2[nH]1` [Example 8-4, 5-methyl-[1,2,4]triazolo[1,5-a]pyrimidin-7(4H)-one] and `CCc1cc(=O)n2ncnc2[nH]1` [Example 8-9, 5-ethyl-[1,2,4]triazolo[1,5-a]pyrimidin-7(4H)-one] are within 1.5-fold of each other in IC50: 26.4 µM for the first, 21.8 µM for the second.

First: O=c1cc(-c2ccccc2)[nH]c2ncnn12 [Example 8-5, 5-phenyl-[1,2,4]triazolo[1,5-a]pyrimidin-7(4H)-one]
Second: O=c1cc(-c2ccncc2)[nH]c2ncnn12 [Example 8-22, 5-pyridin-4-yl[1,2,4]triazolo[1,5-a]pyrimidin-7(4H)-one]
The IC50 of the first is 8.4-fold lower: 2.24 µM for the first, 18.9 µM for the second. The first is the more potent here.

`CCCc1cc(=O)n2ncnc2[nH]1` [Example 8-6] and `CCc1[nH]c2ncnn2c(=O)c1C` [Example 8-18, 5-ethyl-6-methyl[1,2,4]triazolo[1,5-a]pyrimidin-7(4H)-one] are within 1.5-fold of each other in IC50: 47.6 µM for the first, 31.9 µM for the second.

Compared with `COC(=O)Cc1c(C)[nH]c2ncnn2c1=O` [Example 8-7, methyl (5-methyl-7-oxo-4,7-dihydro[1,2,4]triazolo[1,5-a]pyrimidin-6-yl)acetate], `CCOC(=O)c1[nH]c2ncnn2c(=O)c1C` [Example 8-11, ethyl 6-methyl-7-oxo-4,7-dihydro[1,2,4]triazolo[1,5-a]pyrimidine-5-carboxylate] is 3.2-fold lower in IC50: 21.3 µM for the first, 6.75 µM for the second.

`O=c1cc(-c2ccc(F)cc2)[nH]c2ncnn12` [Example 8-8, 5-(4-fluorophenyl)[1,2,4]triazolo[1,5-a]pyrimidin-7(4H)-one] and `O=c1cc(-c2ccc(Cl)cc2)[nH]c2ncnn12` [Example 8-26, 5-(4-chlorophenyl)[1,2,4]triazolo[1,5-a]pyrimidin-7(4H)-one] are within 1.5-fold of each other in IC50: 1.3 µM for the first, 1.39 µM for the second.

First: CCOC(=O)c1[nH]c2ncnn2c(=O)c1Cl [Example 8-10, ethyl 6-chloro-7-oxo-4,7-dihydro[1,2,4]triazolo[1,5-a]pyrimidine-5-carboxylate]
Second: Cc1[nH]c2ncnn2c(=O)c1F [Example 8-25, 6-fluoro-5-methyl[1,2,4]triazolo[1,5-a]pyrimidin-7(4H)-one]
The IC50 of the first is 2.9-fold lower: 6.28 µM for the first, 17.9 µM for the second.

First: Cc1[nH]c2ncnn2c(=O)c1C(C)C [Example 8-12, 5-methyl-6-(1-methylethyl)[1,2,4]triazolo[1,5-a]pyrimidin-7(4H)-one]
Second: CCc1c(C(F)(F)F)[nH]c2ncnn2c1=O [Example 8-16, 6-ethyl-5-(trifluoromethyl)[1,2,4]triazolo[1,5-a]pyrimidin-7(4H)-one]
The IC50 of the first is 3.4-fold lower: 0.474 µM for the first, 1.59 µM for the second.

First: Cn1ccc(-c2cc(=O)n3ncnc3[nH]2)n1 [Example 8-13, 5-(1-methyl-1H-pyrazol-3-yl)[1,2,4]triazolo[1,5-a]pyrimidin-7(4H)-one]
Second: O=c1cc(-c2ccccn2)[nH]c2ncnn12 [Example 8-23, 5-pyridin-2-yl[1,2,4]triazolo[1,5-a]pyrimidin-7(4H)-one]
The IC50 of the first is 12-fold higher: 29.2 µM for the first, 2.42 µM for the second.

Going from `CC(C)n1cc(-c2cc(=O)n3ncnc3[nH]2)cn1` [Example 8-19, 5-[1-(1-methylethyl)-1H-pyrazol-4-yl][1,2,4]triazolo[1,5-a]pyrimidin-7(4H)-one] to `O=c1cc(-c2ccoc2)[nH]c2ncnn12` [Example 8-21, 5-furan-3-yl[1,2,4]triazolo[1,5-a]pyrimidin-7(4H)-one], the IC50 rises from 1.53 µM to 4.1 µM (2.7-fold). The first is the more potent here.

Compared with `O=c1cc(C2CCOCC2)[nH]c2ncnn12` [Example 8-20, 5-(tetrahydro-2H-pyran-4-yl)[1,2,4]triazolo[1,5-a]pyrimidin-7(4H)-one], `O=c1cc(-c2ccco2)[nH]c2ncnn12` [Example 8-24, 5-furan-2-yl[1,2,4]triazolo[1,5-a]pyrimidin-7(4H)-one] is 12-fold lower in IC50: 81.3 µM for the first, 6.79 µM for the second. The second is the more potent here.
